For 49 compounds, IC50 results are on record in patent US8541363B2, “Pyruvamide compounds as inhibitors of dust mite group 1 peptidase allergen and their use” (St George's Hosptial Medical School, priority 2010, dated 2013).

For this assay, the target named is Der p 1 (Dermatophagoides pteronyssinus (European house dust mite), UniProt P08176). The assay is described as follows: Der p 1 enzyme activity assay (FRET fluorogenic substrate). Type of assay: biochemical. How it is done:
The fluorogenic substrate used for measuring Der p 1 proteolytic activity was 2-aminobenzoylvalylalanylnorleucylseryl-(3-nitro)tyrosinyl aspartamide.
Test compounds were dissolved in dry DMSO and maintained at 4° C. as stock solutions until being diluted for use in screening assays. Final concentration of DMSO in all enzymatic assays was 0.5% v/v.
Reaction mixtures were assembled in a 96-well plate format (Perkin Elmer Optiplate 96F, Perkin Elmer LAS, Seer Green, Buckinghamshire, UK) using a Perkin Elmer MultiPROBE II Plus HTS EX robot with Gripper attachment. […] Dithiothreitol (DTT, 10 μL/well, 1 mM final concentration) was then added together with 10 μL of Der p 1 dissolved at 2.5 μg/mL in reaction buffer supplemented with 1 mM DTT. […] The plate was immediately transferred to a fluorescence plate reader (Perkin Elmer Fusion Alpha-FP or Perkin Elmer Envision) equipped with a temperature-controlled carrier set at 30° C. and the reaction followed by excitation/emission at 330/420 nm.
Inhibitory activity was analysed from progress curves of reactions in the presence of a range of inhibitor concentrations.
Initial velocity in each well was converted to fractional activity by Equation 1: Fractional activity=(Initial rate at inhibitor concentration[X]/Initial rate at inhibitor concentration zero)*100 Equation 1:
Then, IC50 was determined by fitting the data of fractional activity and inhibitor concentration to a 4-parameter logistic curve, using Equation 2: V=Vmin+[Vmax−Vmin]/[1+(X/IC50)Hillslope] […] Biological Data—Der p 1 Enzyme Assay

Where [1] appears, read: threshold stated in text, read-out: Der p 1 IC50.

Like-named read-outs stand apart in the source and are kept apart here.

Sequence of Der p 1 (P08176 99-320): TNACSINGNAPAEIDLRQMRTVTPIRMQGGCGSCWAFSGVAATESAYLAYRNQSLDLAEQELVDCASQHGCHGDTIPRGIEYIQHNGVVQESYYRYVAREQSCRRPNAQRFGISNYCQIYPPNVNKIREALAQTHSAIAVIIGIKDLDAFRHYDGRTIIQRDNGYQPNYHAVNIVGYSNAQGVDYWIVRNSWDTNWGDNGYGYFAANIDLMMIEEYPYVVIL

In general, IC50 refers to the concentration that inhibits the measured activity by half. As for `CC(C)C(NC(=O)[C@H](C)NC(=O)[C@H](Cc1ccccc1)NC(=O)c1ccccc1)C(=O)C(=O)NCc1ccncc1` (stereo partly shown) [PVA-022], the IC50 under setting [1] is less than 200 nM.
Turning to `CC(C)[C@H](NC(=O)[C@H](C)NC(=O)[C@@H](NC(=O)c1ccccc1)C(C)(C)C)C(=O)C(=O)NCC(=O)N1CCOCC1` [PVA-079], the IC50 under setting [1] was less than 20 nM.
Still for that read-out and setting: then `CC(C)[C@H](NC(=O)[C@H](C)NC(=O)[C@@H](NC(=O)c1ccccc1)C(C)(C)C)C(=O)C(=O)NCc1ccc(=O)[nH]c1` [PVA-134], with less than 20 nM.
In the case of `CC(C)[C@H](NC(=O)[C@H](C)NC(=O)[C@@H](NC(=O)c1ccccc1)C12CC3CC(CC(C3)C1)C2)C(=O)C(=O)NCC(=O)N1CCN(C)CC1` [PVA-146], the IC50 (Der p 1 IC50) was less than 20 nM.
As to `CC(C)[C@H](NC(=O)[C@H](C)NC(=O)[C@@H](NC(=O)c1ccccc1)C(C)(C)C)C(=O)C(=O)NCC(=O)N1CCCCC1` [PVA-078], the IC50 under setting [1] is less than 20 nM.
As to `CC(C)[C@H](NC(=O)[C@H](C)NC(=O)[C@@H](NC(=O)c1ccccc1)C(C)(C)C)C(=O)C(=O)NCC(=O)N1CCc2ccccc2C1` [PVA-111], where the note is “Der p 1 IC50”, the IC50 was less than 20 nM.
For `CC(C)[C@H](NC(=O)[C@H](C)NC(=O)[C@@H](NC(=O)c1ccccc1)C(C)(C)C)C(=O)C(=O)NC1CCC1` [PVA-203], under setting [1], the 50% inhibitory concentration (IC50) was less than 200 nM.
Still for that read-out and setting: then `CC(C)[C@H](NC(=O)[C@H](C)NC(=O)[C@H](Cc1ccccc1)NC(=O)c1ccccc1)C(=O)C(=O)NCc1ccccc1` [PVA-009], with less than 20 nM.
Under “Der p 1 IC50”, `CC(C)[C@@H](NC(=O)[C@H](C)NC(=O)[C@@H](NC(=O)c1ccccc1)C(C)(C)C)C(=O)C(=O)NC1CCCCC1` [PVA-085] yielded an IC50 of less than 200 nM.
In the case of `CC(C)[C@H](NC(=O)[C@H](C)NC(=O)[C@@H](NC(=O)c1cccc2ncccc12)C(C)(C)C)C(=O)C(=O)NCc1ccccc1` [PVA-150], under setting [1], the IC50 was less than 20 nM.
The same measure, in the same setting: then `CC(C)NC(=O)C(=O)[C@@H](NC(=O)[C@H](C)NC(=O)[C@H](Cc1ccccc1)NC(=O)c1ccccc1)C(C)C` [PVA-015], with less than 200 nM; and `CC(C)[C@H](NC(=O)[C@H](C)NC(=O)[C@@H](NC(=O)C1CCN(C)CC1)C(C)(C)C)C(=O)C(=O)NC1CCCCC1` [PVA-089], with less than 200 nM; and `Cc1cc(CNC(=O)C(=O)[C@@H](NC(=O)[C@H](C)NC(=O)[C@@H](NC(=O)c2ccccc2)C(C)(C)C)C(C)C)no1` [PVA-126], with less than 200 nM.
For the compound `CNS(=O)(=O)c1ccc(CNC(=O)C(=O)[C@@H](NC(=O)[C@H](C)NC(=O)[C@@H](N2Cc3ccccc3C2=O)C(C)(C)C)C(C)C)cc1` [PVA-208], the IC50 (Der p 1 IC50) was less than 20 nM.
As for `CC(C)[C@H](NC(=O)[C@H](C)NC(=O)[C@@H](NC(=O)c1ccccc1)C12CC3CC(CC(C3)C1)C2)C(=O)C(=O)NCc1ccc(S(N)(=O)=O)cc1` [PVA-214], under setting [1], the IC50 is less than 20 nM.
On the same count and under the same terms, then `CC(C)[C@H](NC(=O)[C@H](C)NC(=O)[C@@H](NC(=O)c1ccccc1)C12C[C@H]3C[C@@H](C1)C[C@@H](C2)C3)C(=O)C(=O)NCc1ccccc1` [PVA-066], with less than 20 nM; and `CC(C)[C@H](NC(=O)[C@H](C)NC(=O)[C@H](Cc1ccccc1)NC(=O)c1ccncc1)C(=O)C(=O)NCc1cccc(S(N)(=O)=O)c1` [PVA-171], with less than 200 nM; and `CNC(=O)c1ccc(CNC(=O)C(=O)[C@@H](NC(=O)[C@H](C)NC(=O)[C@@H](N2Cc3ccccc3C2=O)C(C)(C)C)C(C)C)cc1` [PVA-209], with less than 20 nM.
In the case of `CC(C)[C@H](NC(=O)[C@H](C)NC(=O)[C@@H](NC(=O)c1cncc2ccccc12)C(C)(C)C)C(=O)C(=O)NCc1ccccc1` [PVA-074], under setting [1], the IC50 was less than 20 nM.
On the same count and under the same terms, then `CC(C)[C@H](NC(=O)[C@H](C)NC(=O)[C@H](Cc1ccccc1)NC(=O)c1ccccc1)C(=O)C(=O)Nc1ccc(F)cc1` [PVA-011], with less than 200 nM.
On the same count and under the same terms, then `CC(C)[C@H](NC(=O)[C@H](C)NC(=O)[C@@H](N1Cc2ccccc2C1=O)C(C)(C)C)C(=O)C(=O)NCc1ccc(C(N)=O)cc1` [PVA-207], with less than 20 nM.
`CC(C)[C@H](NC(=O)[C@H](C)NC(=O)[C@@H](NC(=O)c1ccc(OCCN2CCCC2)cc1)C(C)(C)C)C(=O)C(=O)NC1CCCCC1` [PVA-076]: the IC50 under setting [1] was less than 200 nM.
As to `CC(C)[C@H](NC(=O)[C@H](C)NC(=O)[C@H](Cc1ccccc1C(F)(F)F)NC(=O)c1ccncc1)C(=O)C(=O)NCc1ccccc1` [PVA-152], under setting [1], the IC50 is less than 200 nM.
Same read-out and setting: then `CC(C)[C@H](NC(=O)[C@H](C)NC(=O)[C@@H](Cc1ccc(F)c(F)c1)NC(=O)c1ccccc1)C(=O)C(=O)NC1CCCCC1` [PVA-028], with less than 200 nM.
On the same count and under the same terms, then `COC(=O)c1cccc(CNC(=O)C(=O)[C@@H](NC(=O)[C@H](C)NC(=O)[C@H](Cc2ccccc2)NC(=O)c2ccccc2)C(C)C)c1` [PVA-080], with less than 20 nM; and `CC(C)[C@H](NC(=O)[C@H](C)NC(=O)[C@@H](NC(=O)c1cnccn1)C(C)(C)C)C(=O)C(=O)NCc1ccccc1` [PVA-058], with less than 200 nM.
For `CC(C)[C@H](NC(=O)[C@H](C)NC(=O)[C@@H](NC(=O)c1ccccc1)C(C)(C)C)C(=O)C(=O)NCc1ccc(F)cc1` [PVA-178], the IC50 under setting [1] was less than 20 nM.
The same measure, in the same setting: then `Cc1cc(C(=O)N[C@H](C(=O)N[C@@H](C)C(=O)N[C@H](C(=O)C(=O)NCc2ccccc2)C(C)C)C(C)(C)C)[nH]n1` [PVA-107], with less than 200 nM.
Still for that read-out and setting: then `CC(C)[C@H](NC(=O)[C@H](C)NC(=O)[C@H](Cc1ccccc1)NC(=O)c1ccncc1)C(=O)C(=O)NCc1ccc(S(N)(=O)=O)cc1` [PVA-161], with less than 20 nM; and `CC(C)[C@H](NC(=O)[C@H](C)NC(=O)[C@@H](NC(=O)c1ccccc1)C(C)(C)C)C(=O)C(=O)NCC(=O)N1CCC(N(C)C)C1` (stereo partly shown) [PVA-105], with less than 20 nM; and `CCCCC(NC(=O)[C@H](C)NC(=O)[C@H](Cc1ccccc1)NC(=O)c1ccccc1)C(=O)C(=O)NCc1ccncc1` (stereo partly shown) [PVA-040], with less than 2000 nM.
On the same count and under the same terms, then `CC(C)[C@H](NC(=O)[C@H](C)NC(=O)[C@@H](NC(=O)c1cccc(C(=O)O)c1)C(C)(C)C)C(=O)C(=O)NCC(=O)N1CCN(C)CC1` [PVA-130], with less than 20 nM; and `COc1cccc(CNC(=O)C(=O)[C@@H](NC(=O)[C@H](C)NC(=O)[C@H](Cc2ccccc2)NC(=O)c2ccncc2)C(C)C)c1` [PVA-160], with less than 200 nM.
`CC(C)[C@H](NC(=O)[C@H](C)NC(=O)[C@@H](NC(=O)c1ccccc1)C(C)(C)C)C(=O)C(=O)NCc1cccc(C(=O)OC(C)(C)C)c1` [PVA-200]: the half-maximal inhibitory concentration (IC50) under setting [1] is less than 200 nM.
Same read-out and setting: then `CC(C)[C@H](NC(=O)[C@H](C)NC(=O)[C@@H](NC(=O)c1ccccc1)C(C)(C)C)C(=O)C(=O)NCc1ccccc1Cl` [PVA-193], with less than 200 nM.
`CC(C)[C@H](NC(=O)[C@H](C)NC(=O)[C@@H](NC(=O)c1ccccc1)C(C)(C)C)C(=O)C(=O)NC1CN2CCC1CC2` (stereo partly shown) [PVA-119] registered an IC50 (Der p 1 IC50) of less than 200 nM.
Turning to `CC(C)[C@H](NC(=O)[C@H](C)NC(=O)[C@@H](NC(=O)c1cccc2ccccc12)C(C)(C)C)C(=O)C(=O)NCc1ccccc1` [PVA-056], the IC50 under setting [1] is less than 200 nM.
The same measure, in the same setting: then `CC(C)[C@H](NC(=O)[C@H](C)NC(=O)[C@@H](NC(=O)c1ccnc2ccccc12)C(C)(C)C)C(=O)C(=O)NCc1ccccc1` [PVA-072], with less than 20 nM; and `CC(C)[C@H](NC(=O)[C@H](C)NC(=O)[C@@H](NC(=O)c1ccccc1)C(C)(C)C)C(=O)C(=O)NCc1ccc(C#N)cc1` [PVA-192], with less than 20 nM.
As to `CC(C)[C@H](NC(=O)[C@H](C)NC(=O)[C@@H](NC(=O)c1ccccc1)C(C)(C)C)C(=O)C(=O)N[C@@H]1CN2CCC1CC2` [PVA-120], for the setting “Der p 1 IC50”, the IC50 was less than 200 nM.
Take `CC(C)[C@H](NC(=O)[C@H](C)NC(=O)[C@H](Cc1ccccc1)NC(=O)c1ccccc1)C(=O)C(=O)NC1Cc2ccccc2C1` [PVA-103]: the IC50 under setting [1] was less than 200 nM.
For the compound `CC(C)[C@H](NC(=O)[C@H](C)NC(=O)[C@@H](NC(=O)c1ccnc2ccccc12)C(C)(C)C)C(=O)C(=O)NC1CC1` [PVA-144], under setting [1], the half-maximal inhibitory concentration (IC50) is less than 20 nM.
On the same count and under the same terms, then `CC(C)[C@H](NC(=O)[C@H](C)NC(=O)[C@H](Cc1ccccc1)NC(=O)c1ccncc1)C(=O)C(=O)NC1CCCC1` [PVA-175], with less than 200 nM.
For `CC(C)[C@H](NC(=O)[C@H](C)NC(=O)[C@@H](N1Cc2ccccc2C1=O)C(C)(C)C)C(=O)C(=O)NCc1ccc(N2CCN(C)CC2)nc1` [PVA-213], the IC50 under setting [1] is less than 20 nM.
As for `CC(C)[C@H](NC(=O)[C@H](C)NC(=O)[C@@H](NC(=O)c1ccncn1)C(C)(C)C)C(=O)C(=O)NC1CCCCC1` [PVA-082], under setting [1], the IC50 was less than 200 nM.
Take `CC(C)[C@H](NC(=O)[C@H](C)NC(=O)[C@@H](Cc1ccncc1)NC(=O)c1ccccc1)C(=O)C(=O)NC1CCCCC1` [PVA-036]: under setting [1], the IC50 was less than 200 nM.
Same read-out and setting: then `CC(C)[C@H](NC(=O)[C@H](C)NC(=O)[C@H](Cc1ccccc1)NC(=O)c1ccnc(N2CCOCC2)c1)C(=O)C(=O)NC1CCCCC1` [PVA-069], with less than 2000 nM; and `CC(C)[C@H](NC(=O)[C@H](C)NC(=O)C1Cc2ccccc2N1C(=O)c1ccccc1)C(=O)C(=O)NCc1ccccc1` (stereo partly shown) [PVA-123], with less than 200 nM; and `CC(C)[C@H](NC(=O)[C@H](C)NC(=O)[C@@H](NC(=O)c1ccccc1)C(C)(C)C)C(=O)C(=O)NCc1ccc(CN(C)C)cc1` [PVA-164], with less than 20 nM.
